Assay results reported in patent US4053632A, “Compounds of spiro-amine type and methods for their use” (priority 1971, dated 1977).
Entries after “also recorded” stand apart in the source; their conditions may differ. Read-outs that look alike come from different tables or passages of the source.

Tests used:
aggressive behavior = assay: Aggressive behavior (anti-aggressive test) in isolated mice; type: in vivo, mouse; settings: for ED50: Mus musculus, ip, 1 h, read-out: Anti-aggresive test ED50; for effect on aggressive behavior: in words
Description: Anxiolytic effect was defined as a block of aggressive behavior in mice. Male mice kept isolated for 3 weeks or longer develop an aggressive behaviour when caged together. The method used followed that reported by Valzelli et al. (8) with the exception that two mice were tested together. The aggressiveness was scored during a five minute test according to the following scale:
0: the animals show no interest in each other except occasional nosing,
[…]: frequent vigorous nosing and tail twitching. The animals assume a fighting position and occasionally attack the partner -- no more than 3-4 times in the period of five minutes,
50: tail twitching, powerful attacks -- no more than 10 times during the test period,
75: the animals pursue their partners, attacking and biting for most of the time,
100: attacks over the entire period.
Controls administered with the solvent were tested. […] The animals were used for several experiments but with intervals of at least one week. Groups of 10 mice were used, and they were tested one hour after the administration of the drug. The animals were used as their own controls.

[1] = tested on: uptake of 5-HT (midbrain slices); assay: Inhibition of the uptake of tritiated 5-HT in vivo; design: species or system mouse; settings: for ED50: Mus musculus, ip, 0.5 h, i.p., in vivo, read-out: Inhibition (50 %) of uptake in vivo, 5-HT
Description: The drugs were administered intraperitoneally half an hour before the animals were killed and the midbrain was taken out and sliced and incubated in a mixture consisting of, per 100 mg of brain slices, 0.2 μmole of ^3 H-5-HT and 1 μmole of glucose in 2 ml of Krebs-Henseleit buffer, pH 7.4. The incubation time was 5 minutes with 5 minutes of preincubation before ^3 H-5-HT was added. The radioactive ^3 H-5-HT taken up in the slices was extracted with ethanol and the amount was determined by liquid scintillation. The dose producing 50 per cent decrease of the active uptake (ED50) was determined graphically from dose response curves. Active uptake is defined as that part of the radioactive uptake which is inhibited by a high concentration of cocaine. All doses were given at least to four animals.

[2] = tested on: NA turnover / noradrenaline receptor; assay: Estimation of NA receptor blockade (NA turnover) in the rat brain; type: in vivo; settings: for minimal effective dose: ip, read-out: first significant dose, effect on brain noradrenaline level
Description: (§1) The estimation of catecholamine (CA) turnover was made by using the tyrosine hydroxylase inhibitor α-methyl tyrosine methyl ester (H 44/68) (4). This technique is based on the assumption that dopamine (DA) or noradrenaline (NA) receptor blockade will mediate an increase in CA turnover and result in lowered CA levels in the brain compared to H 44/68 alone. Since DA receptor blockade is assumed to be a biochemical correlate to antipsychotic action, this test gives a biochemical evidence for an antipsychotic effect. In this particular test the DA and NA levels in the brain were measured biochemically (5,6).

[3] = tested on: conditioned avoidance response (CAR); assay: Conditioned avoidance response in rats; type: in vivo, rat; settings: for ED50: Rattus norvegicus, ip, 1 h, i.p.
Description: For this reason the conditioned avoidance test has been developed for initial screening of neuroleptics. Rats were trained to avoid electrical shock by jumping from one compartment to the other in a shuttle box. The conditioned stimulus consists of an auditory signal which after eight seconds was followed by the electrical shock. The rates were trained to a criterion of making eight out of ten responses correctly. The drugs were injected one hour before the test. The avoidance responses are expressed in percentage of those before administration. CD50 is the dose which reduces the avoidance response to 50% of control values.

[4] = tested on: uptake of noradrenaline (cortex slices); assay: Inhibition of the uptake of tritiated noradrenaline in vivo; settings: ip, read-out: Inhibition (50 %) of uptake in vivo, NA
Description: The animals were killed half or one hour after the administration of the drugs in vivo (i.p.). The slices, made from cortex, were preincubated for five minutes and incubated with 0.1 μmole per ml of ^3 H-noradrenaline for further five minutes. The incubation mixture consisted of 0.2 μmole of ^3 H-NA and the brain slices in 2 ml of Krebs-Henseleits buffer, pH 7.4. The radioactive ^3 H-NA taken up in the slices was extracted with ethanol and the amount was determined by liquid scintillation. The dose producing 50 per cent decrease of the active uptake (ED50) was determined graphically from dose response curves. At least four animals were used at each dose level.

[5] = tested on: methamphetamine induced hyperactivity; assay: Antagonism of methamphetamine-induced hyperactivity; type: in vivo, mouse; settings: mice, FIG. 1, in words
Description: Sedatives (e.g. barbiturates, benzodiazepines and propandiols) on the other hand generally potentiate the induced hyperactivity. The interaction with amphetamines consequently gives an indication of the mechanism of a drug. Male mice were pretreated with the test drug 30 minutes before the administration of methamphetamine 3 mg/kg i.p. After 20 minutes the spontaneous motor activity was measured for 20 minutes by an Animex activity meter, which can distinguish between slight and considerable motion. The animals were tested in groups of three and used only once. Control groups treated with saline alone or the test drug and saline according to the testing schedule were run simultaneously.

in vivo = settings: mouse
Description: (§3) The compounds were given by intravenous route to 3 mice. […] Seizures, gait, sedation and grip strength were recorded.
(§4) Acute toxicity was tested by the intraveneous, intraperitoneal and oral routes of administration. […] During the oral route a behavioral scoring system was used in order to relate changes in behavior to dose. The LD50 values were determined graphically from log dose -- response curves based on four doses with three animals per dose. Peripheral parasympatholytic effect was tested in mice by observing the mydriatic effect after intravenous injection (9) (four doses with three animals per dose). PD200 refers to the dose which increases the pupil width by 200%.

[6] = tested on: uptake of 5-HT (midbrain slices); assay: Inhibition of the uptake of tritiated 5-HT in vitro (brain slices); type: biochemical, mouse
[7] = tested on: DA turnover / dopamine receptor; assay: Estimation of DA receptor blockade (DA turnover) in the rat brain; type: in vivo; settings: for effect on DA turnover: in words; for minimal effective dose: ip, read-out: first significant dose, effect on brain dopamine level
Description: as §1

[8] = tested on: uptake of noradrenaline (cortex slices); assay: Inhibition of the uptake of tritiated noradrenaline in vitro (brain slices); type: biochemical; settings: dl-noradrenaline 10^-7 M
motor activity = assay: Motor activity in mice; type: in vivo, mouse; settings: for ED50: Mus musculus, 1 h
Description: The exploratory activity of mice was recorded in a locomotion cage in which the movements were counted each time the animals cross-circuits on electrical current in the bottom plate. […] The animals were tested individually. Groups of six mice were used and the mice were only used once. The activity was expressed in percent of the activity of control groups ran simultaneously.
Sedative activity was defined as suppression of normal motor activity. The motor activity in mice was automatically recorded in a locomotion cage in which the movements are counted each time the animal short-circuits an electrical current in the bottom plate. […] The animals were tested individually. Groups of six mice were used. The activity was expressed in percent of the activity of control groups run simultaneously.

catalepsy [9] = assay: Catalepsy; type: in vivo; settings: rat
Description: (§2) Using the method and intensity scaring system described by Costall and Naylar, (7), the cataleptic properties of SIR 109 and chloropromazine were studied. Briefly, an animal was classed as cataleptic if it remained in an abnormal position for 15 seconds. Additionally, the duration the animal held this position was converted to a numerical scare as an indication of the intensity of the catalepsy.

Catalepsy [10] = type: in vivo
Description: as §2

mice [11] = assay: Behavioral observation (ptosis, catatonia) in mice; type: in vivo, mouse
pupil width (mydriasis) = settings: mouse, in vivo
Description: as §3, §4

mice [12] = assay: Acute toxicity in mice; settings: in words
Description: as §3, §4

l-Dopa response = assay: Dopa response potentiation test; type: in vivo, mouse; settings: Mus musculus, ip; read-out: Potentiation of l-Dopa, effective dose
Description: This test is developed by G.M. Everett (Antidepressant drugs,[…] in groups of 3 are pretreated with Pargyline ®40 l mg/kg p.o. about 10-16 hours before the test. […] 1. piloerection, slight salivation, slight increased motor activity 2. piloerection, salivation, marked increased motor activity and irritability 3. piloerection, profuse salivation, marked irritability and reactivity, jumping, squeaking, fighting.

5-HTP response = 5-HTP response potentiation test; type: in vivo, mouse; settings: Mus musculus, ip
Description: These small movements are quantitatively measured in an activity box, type Animex, which can distinguish between small and gross movements. The activity is measured during 20 minutes and only in the case the animals have a fullblown syndrome.

rabbits = assay: Drug induced arrhythmias in rabbits; type: in vivo, rabbit
Description: Test drugs were intravenously administered to male rabbits anesthesized wth amytal. The doses were increased stepwise up to the lethal dose and the first dose which induced arrhythmia was noted.

[13] = tested on: conditioned avoidance response (CAR); settings: general knowledge, in words; cited from earlier work
[14] = rat, after H 44/68 250 mg/kg i.p.
[15] = mice, read-out: Motor activity ID50

CN(C)C1C=CC2(CC1)c1ccccc1CCc1ccc(Cl)cc12 (racemic) [SIR 109, 3'-chloro-10', 11'-dihydro-4-(dimethylamino)spiro[2-cyclohexene-1,5'(5'H)-dibenzo[a,d]cycloheptene]]
ED50 (aggressive behavior; i.p., mice): 0.27 mg/kg
effect on aggressive behavior (aggressive behavior; mice): potent at a dose which does not cause sedation; also recorded: strong effect of SIR 109 on aggressive behavior at non-sedative doses
ED50 [1]: > 40 mg/kg
effect on NA turnover / selectivity versus DA turnover ([2]; in words): seems to be more selective than chlorpromazine since it influences NA turnover first at higher doses; also recorded: more selective compound than chlorpromazine since it affects NA turnover first at higher doses
minimal effective dose [2, 14]: 10 to 15 mg/kg
ED50 ([3]; rat, read-out: CAR CD50): 7.5 to 10 mg/kg
ED50 ([3]; read-out: CAR ED50 (Table 4)): 7.5 to 10 mg/kg
effect on conditioned avoidance response ([3]; rat, in words): somewhat less active than chlorpromazine; also recorded: about as potent as chlorpromazine
ED50 [4]: 40 mg/kg
block of methamphetamine induced hyperactivity [5]: blocked methamphetamine induced hyperactivity in mice; also recorded: about as potent as chlorpromazine
LD50 at 24 h (in vivo; ip): 185 mg/kg
LD50 at 24 h (in vivo; iv): 40 mg/kg
LD50 at 24 h (in vivo; po): 250 mg/kg
Inhibition (50 %) of uptake in vitro, 5-HT [6]: 1.3 µg/mL
effect on DA turnover [7]: effects DA turnover at about the same dose; also recorded: about as potent as chlorpromazine
minimal effective dose [7, 14]: 5 mg/kg
Inhibition (50 %) of uptake in vitro, NA [8]: 1.5 µg/mL
ED50 (motor activity; [15]): 5 mg/kg
ED50 (motor activity; ip, i.p., mice, read-out: Motor activity ID50 (Table 4)): 5 mg/kg
sedation / tranquilizing effect (motor activity; in words): tranquilizing effect of the compound; also recorded: strongly sedative or tranquilizing
sedation (motor activity) versus CPZ (motor activity; mice, in words): caused sedation in the mice at about the same dose as CPZ; also recorded: about as potent as chlorpromazine
Catalepsy intensity score (catalepsy [9]): 0.75
cataleptic effect (catalepsy [9]; in words): weak cataleptic effect in the rat; also recorded: intensity of catalepsy was considerably lower after SIR 109 compared to CPZ; also recorded: low cataleptic action
ED50 (Catalepsy [10]; in vivo, ip, rat): 25 mg/kg
threshold dose for ptosis (mice [11]; mouse, in vivo): 31 mg/kg
catatonic state (mice [11]; mouse, in vivo, po): did not cause any catatonic state
peripheral (parasympatholytic) effects (pupil width (mydriasis)): weak peripheral effects
PD200 (Table 4) (pupil width (mydriasis); iv, 10 min): > 40 mg/kg
acute toxicity versus CPZ (mice [12]): considerably less toxic than CPZ both after i.v., i.p. and oral administration in the mice; also recorded: considerably less toxic after acute administration

NC1C=CC2(CC1)c1ccccc1C=Cc1ccccc12 (stereo not shown) [CPG 186]
ED50 [1]: 28 mg/kg
blocking the uptake of 5-HT in vivo versus imipramine ([1]; in words): blocks the uptake of 5-HT in equivalent doses
minimal effective dose (l-Dopa response): > 10 mg/kg
ED50 [4]: 14 mg/kg
LD50 at 24 h (in vivo; iv): 25 mg/kg
Inhibition (50 %) of uptake in vitro, 5-HT [6]: > 10 µg/mL
minimal effective dose (5-HTP response): 25 mg/kg
arrhythmia in rabbits (rabbits; nonlethal doses, in words): did not cause arrhythmia in nonlethal doses in rabbits
Arrythmia (rabbit), accumulated i.v. dose where there are signs of arrythmia (rabbits; rabbit, in vivo, iv): > 10
Inhibition (50 %) of uptake in vitro, NA [8]: 1.5 µg/mL
ED50 (motor activity; [15]): > 50 mg/kg
sedation / tranquilizing effect (motor activity; in words): gave sedation only in high doses
anticholinergic effects (pupil width (mydriasis)): devoid of the anticholinergic effects
Peripheral anti-cholinergic action PD200 (pupil width (mydriasis); iv, 10 min): > 25 mg/kg

CN(C)CCCN1c2ccccc2Sc2ccc(Cl)cc21 [Chlorpromazine, reference compound]
ED50 (aggressive behavior): 2 mg/kg
effect on aggressive behavior (aggressive behavior; mice): effective first at sedative doses
minimal effective dose ([2]; Rattus norvegicus): 5 mg/kg
ED50 ([3]; read-out: CAR ED50 (Table 4)): 5 mg/kg
block of methamphetamine induced hyperactivity [5]: blocked methamphetamine induced hyperactivity in mice
LD50 at 24 h (in vivo; ip): 92 mg/kg
LD50 at 24 h (in vivo; iv): 26 mg/kg
LD50 at 24 h (in vivo; po): 190 mg/kg
minimal effective dose ([7]; Rattus norvegicus): 5 mg/kg
effect on DA turnover [7]: effects DA turnover at about the same dose
inhibition of learned responses [13]: inhibit many different types of learned responses
Catalepsy intensity score (catalepsy [9]; in vivo): 1.0
ED50 (Catalepsy [10]; rat, in vivo, ip): 7 mg/kg
threshold dose for ptosis (mice [11]; mice): 4 mg/kg
dose from which catatonic state was prominent (mice [11]; orally, mouse): ≥ 31 mg/kg
